Measured values taken from ChEMBL document CHEMBL1139855, “Molecular recognition of DNA by rigid [N]-polynorbornane-derived bifunctional intercalators: synthesis and evaluation of their binding properties” (J Med Chem, 2007).

What was measured:
Triticum aestivum = assay: Binding affinity at wheat germ single stranded RNA by competition assay
DNA = assay: Binding affinity at calf thymus double stranded DNA by competition dialysis assay; format: nucleic-acid assay; conditions: Bos taurus
[1] = Binding affinity at poly(dA).poly(dT) dsDNA polynucleotide by competition dialysis assay
[2] = Binding affinity at poly (dGdC). poly (dGdC) dsDNA polynucleotide by competition dialysis assay
[3] = Binding affinity at poly (dAdT). poly (dAdT) dsDNA polynucleotide by competition dialysis assay
[4] = Binding affinity at polyA.Poly U dsRNA polynucleotide by competition dialysis assay
[5] = Binding affinity at polyA ssRNA by competition dialysis assay
Escherichia coli = assay: Binding affinity at Escherichia coli double stranded DNA by competition dialysis assay

SMILES | Kapp (Triticum aestivum) | Kapp (DNA) | Kapp [1] | Kapp [2] | Kapp [3] | Kapp [4] | Kapp [5] | Kapp (Escherichia coli)
COC(=O)C12OC(C(=O)OC)(C3C4CC(C5C(=O)N(CCNc6c7ccccc7nc7ccccc67)C(=O)C45)C31)C1C3CC(C4C(=O)N(CCNc5c6ccccc6nc6ccccc56)C(=O)C34)C12 (stereo unspecified) | 8.8 10^3/M | 30.4 10^3/M | 16.4 10^3/M | 28.4 10^3/M | 38.9 10^3/M | 19.2 10^3/M | 2.93 10^3/M | 32.8 10^3/M
COC(=O)C12OC(C(=O)OC)(C3C4CC(C5C(=O)N(CCNC(=O)c6cccc7cc8ccccc8nc67)C(=O)C45)C31)C1C3CC(C4C(=O)N(CCNc5c6ccccc6nc6ccccc56)C(=O)C34)C12 (stereo unspecified) | 0.27 10^3/M | 23.1 10^3/M | 0.8 10^3/M | 15.6 10^3/M | 29.5 10^3/M | 0.27 10^3/M | 0.27 10^3/M | 12.9 10^3/M
O=C1C2C3C=CC(C3)C2C(=O)N1CCNc1c2ccccc2nc2ccccc12 (stereo unspecified) | 2.4 10^3/M | 6.27 10^3/M | 0.53 10^3/M | 3.47 10^3/M | 12.1 10^3/M | 1.47 10^3/M | 0 10^3/M | 3.47 10^3/M
FC(F)(F)C12OC(C(F)(F)F)(C3C4CC(C5CN(CCNc6c7ccccc7nc7ccccc67)CC54)C31)C1C3CC(C4CN(CCNc5c6ccccc6nc6ccccc56)CC43)C12 (stereo unspecified) | 0.53 10^3/M | 20.3 10^3/M | 19.6 10^3/M | 27.6 10^3/M | 29.5 10^3/M | 0.53 10^3/M | 1.73 10^3/M | 19.1 10^3/M
COC(=O)C12OC(C(=O)OC)(C3C4CC(C5C(=O)N(CCNC(=O)c6cccc7cc8ccccc8nc67)C(=O)C45)C31)C1C3CC(C4C(=O)N(CCNC(=O)c5cccc6cc7ccccc7nc56)C(=O)C34)C12 (stereo unspecified) | 0.53 10^3/M | 16 10^3/M | 6.8 10^3/M | 9.6 10^3/M | 13.9 10^3/M | 8.27 10^3/M | 0.53 10^3/M | 6.8 10^3/M
COC(=O)C12OC(C(=O)OC)(C3C4CC(C5C(=O)N(CCNc6c7ccccc7nc7ccccc67)C(=O)C45)C31)C1C3CC(C4C(=O)N(CCN5C(=O)c6cccc7cccc(c67)C5=O)C(=O)C34)C12 (stereo unspecified) | 7.6 10^3/M | 8.13 10^3/M | 3.87 10^3/M | 8.13 10^3/M | 14.4 10^3/M | 0.8 10^3/M | 0.8 10^3/M | 14.9 10^3/M
COC(=O)C12OC(C(=O)OC)(C3C4CC(C5C(=O)N(CCNc6c7ccccc7nc7ccccc67)C(=O)C45)C31)C1C3CC(C12)C1C3C2(C(=O)OC)OC1(C(=O)OC)C1C3CC(C4C(=O)N(CCNc5c6ccccc6nc6ccccc56)C(=O)C34)C12 (stereo unspecified) | 5.33 10^3/M | 30.4 10^3/M | 23.7 10^3/M | 26.4 10^3/M | 31.7 10^3/M | 25.5 10^3/M | 1.47 10^3/M | 25.7 10^3/M
